Laboratory results taken from patent publication US20010031729A1, “Composition comprising carbohydrate and peptide material and its use as an energy supplement after or during physical exercise or as a metabolic nutrient for oral consumption” (priority 1999, published 2001).

Test system: healthy, non-obese male subjects after an overnight fast
Experiment: First study: insulinotropic effect of test drinks co-ingested with carbohydrate, plasma insulin by radio-immuno-assay
Format: in vivo, human
Settings: 1st study
Text: In studies presented below the effects of intact casein, several protein hydrolysates and protein hydrolysate in combination wit specific amino acids have been examined. The sodium casein used in this study is commercially available from DMV-International. Glucose and maltodextrin were obtained from AVEBE (the Netherlands) and crystalline amino acids from BUFA (the Netherlands). In the presented study the following commercially available protein hydrolysates from Quest-International have been used: Hyprol® 3301 (whey protein hydrolysate, average peptide chain length of 4.1), Hyprol® 4107 (wheat gluten protein hydrolysate, average peptide chain length of 12.2) and Hyprol® 7102 (pea protein hydrolysate, average peptide chain length of 6.4). The insulin responses in blood plasma was analysed by radio-immuno-assay (Insulin RIA 100 kit, Pharmacia, Sweden),
In three studies the efficiency of an amino acid and/or protein (hydrolysate) mixture in a carbohydrate containing drink with respect to their insulinotropic effect in human subjects was examined. […]
Eight healthy, non-obese male subjects (age 21±0.4, weight 73.9±2.2 kg, height 186±2 cm, BMI 21.4±0.7 kg·m^−2) after an overnight fast, were tested for 2 hours on 10 occasions in which different beverage compositions were ingested. […] The insulin response is expressed as area under the curve during the second hour. […]

Influence of addition of free glutamine on plasma glutamine concentrations: hardly influenced
Structure (SMILES): NC(=O)CC[C@H](N)C(=O)O [glutamine]
Effect on the insulin response of addition to the mixture of arginine, leucine and phenylalanine (healthy men): no effect
